Biological target: BCL2 (Homo sapiens, UniProt P10415)
Assay: Biacore SPR solution inhibition assay of BCL-2 binding to peptide derivatized sensor surfaces
Conditions: SPR competition; 56 nM BCL2 pre-equilibrated with compound one hour; biotinylated BAK, BAD and NOXA peptide surfaces; 25° C.
Method in brief: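 Solution-competition SPR at 25 °C in HEPES pH 7.4 buffer with 1.25 mM DTT and 3% DMSO: compounds (6-point threefold series, 16 μM to 0.004 nM) pre-equilibrated 1 h with 56 nM BCL2, then injected over captured biotinylated BAK, BAD and NOXA peptide surfaces. Binding levels relative to BCL2-only controls gave % inhibition.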

Sequence of BCL2 (P10415 whole entry): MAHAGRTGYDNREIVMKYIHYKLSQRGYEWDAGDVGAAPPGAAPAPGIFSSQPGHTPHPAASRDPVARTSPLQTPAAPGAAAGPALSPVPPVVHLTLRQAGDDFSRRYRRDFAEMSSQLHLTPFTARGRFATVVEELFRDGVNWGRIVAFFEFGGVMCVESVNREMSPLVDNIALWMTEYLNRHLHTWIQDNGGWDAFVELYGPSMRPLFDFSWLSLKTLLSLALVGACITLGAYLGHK

| SMILES | IC50 |
| --- | --- |
| CN(C)CC[C@H](CSc1ccc(F)cc1)Nc1ccc(S(=O)(=O)Nc2ncnc3c2CCN(C2CCN(Cc4ccccc4-c4ccc(Cl)cc4)CC2)C3)cc1S(=O)(=O)C(F)(F)F [Example 37, N-{7-[1-(4′-Chloro-biphenyl-2-ylmethyl)-piperidin-4-yl]-5,6,7,8-tetrahydro-pyrido[3,4-d]pyrimidin-4-yl}-4-[(R)-3-dimethylamino-1-(4-fluoro-phenylsulfanylmethyl)-propylamino]-3-trifluoromethanesulfonyl-benzenesulfonamide] | 58 nM |
| O=S(=O)(Nc1ncnc2c1CN(C1CCN(Cc3ccccc3-c3ccc(Cl)cc3)CC1)C2)c1ccc(N[C@H](CCN2CCOCC2)CSc2ccccc2)c(S(=O)(=O)C(F)(F)F)c1 [Example 72, (R)-N-(6-(1-((4′-chlorobiphenyl-2-yl)methyl)piperidin-4-yl)-6,7-dihydro-5H-pyrrolo[3,4-d]pyrimidin-4-yl)-4-(4-morpholino-1-(phenylthio)butan-2-ylamino)-3-(trifluoromethylsulfonyl)benzenesulfonamide] | 971 nM |
| [2H]C1(N2CCc3c(ncnc3NS(=O)(=O)c3ccc(N[C@H](CCN4CCOCC4)CSc4ccccc4)c(S(=O)(=O)C(F)(F)F)c3)C2)CCN(CC2=C(c3ccc(Cl)cc3)CC(C)(C)CC2)CC1 [Example 91, (R)-N-(7-(1-((2-(4-chlorophenyl)-4,4-dimethylcyclohex-1-enyl)methyl)-4-deuteropiperidin-4-yl)-5,6,7,8-tetrahydropyrido[3,4-d]pyrimidin-4-yl)-4-(4-morpholino-1-(phenylthio)butan-2-ylamino)-3-(trifluoromethylsulfonyl)benzenesulfonamide] | 41 nM |
| CC1Cc2c(ncnc2NS(=O)(=O)c2ccc(N[C@H](CCN(C)C)CSc3ccccc3)c(S(=O)(=O)C(F)(F)F)c2)CN1C1CCN(Cc2ccccc2-c2ccc(Cl)cc2)CC1 (stereo in doubt) [Example 48, N—[(S)-7-[1-(4′-Chloro-biphenyl-2-ylmethyl)-piperidin-4-yl]-6-methyl-5,6,7,8-tetrahydro-pyrido[3,4-d]pyrimidin-4-yl]-4-((R)-3-dimethylamino-1-phenylsulfanylmethyl-propylamino)-3 trifluoromethanesulfonyl-benzene sulfonamide] | 353 nM |
| CC(c1cc(F)ccc1-c1ccc(Cl)cc1)N1CCC(N2CCc3c(ncnc3NS(=O)(=O)c3ccc(N[C@H](CCN4CCN(C)CC4)CSc4ccccc4)c(S(=O)(=O)C(F)(F)F)c3)C2)CC1 (stereo partly drawn) [Example 35, N-(7-(1-(1-(4′-chloro-4-fluorobiphenyl-2-yl)ethyl)piperidin-4-yl)-5,6,7,8-tetrahydropyrido[3,4-d]pyrimidin-4-yl)-4-((R)-4-(4-methylpiperazin-1-yl)-1-(phenylthio)butan-2-ylamino)-3-(trifluoromethylsulfonyl)benzenesulfonamide] | 80 nM |
| CN(C)CC[C@H](CSc1ccccc1)Nc1ccc(S(=O)(=O)Nc2ncnc3c2CCN(C2CCN(Cc4ccccc4-c4ccccc4Cl)CC2)C3)cc1S(=O)(=O)C(F)(F)F [Example 98] | 36 nM |
| CC(C1=C(c2ccc(Cl)cc2)CC(C)(C)CC1)N1CCC(N2CCc3c(ncnc3NS(=O)(=O)c3ccc(N[C@H](CCN4CCOCC4)CSc4ccccc4)c(S(=O)(=O)C(F)(F)F)c3)C2)CC1 (stereo partly drawn) [Example 24] | 89 nM |
| [2H]C1(N2CCc3c(ncnc3NS(=O)(=O)c3ccc(N[C@H](CCN4CCOCC4)CSc4ccccc4)c(S(=O)(=O)C(F)(F)F)c3)C2)CCN([C@@H](C)c2ccccc2-c2ccc(Cl)cc2)CC1 [Example 88] | 2310 nM |
| [2H]C1(N2CCc3c(ncnc3NS(=O)(=O)c3ccc(N[C@H](CCN4CCN(CC)CC4)CSc4ccccc4)c(S(=O)(=O)C(F)(F)F)c3)C2)CCN(Cc2cc(F)ccc2-c2ccc(Cl)cc2)CC1 [Example 89, (R)-N-(7-(1-((4′-chloro-4-fluorobiphenyl-2-yl)methyl)-4-deuteropiperidin-4-yl)-5,6,7,8-tetrahydropyrido[3,4-d]pyrimidin-4-yl)-4-(4-(4-ethylpiperazin-1-yl)-1-(phenylthio)butan-2-ylamino)-3-(trifluoromethylsulfonyl)benzenesulfonamide] | 35 nM |

From US8809352B2, “Sulfonamides as inhibitors of Bcl-2 family proteins for the treatments of cancer” (Novartis AG, priority 2009, dated 2014)
